Data on 1 compound can be found in patent US9891239B2, “Modulators of pharmacokinetic properties of therapeutics” (Gilead Sciences, Inc., priority 2007, dated 2018).

This assay concerns wild-type HIV-1 strain IIIB. The assay can be described thus: Anti-HIV-1 cell culture assay (EC50), XTT readout of cytopathic effect in MT2 cells. In kind it is cell-based. Particulars: Human immunodeficiency virus 1, IIIB, MT2, 120 h, read-out: protease inhibition activity represented by HIV EC50. The procedure: The assay is based on quantification of the HIV-1-associated cytopathic effect by a […] detection of the viability of virus-infected cells in the presence or absence of tested inhibitors. HIV-1-induced cell death was determined using a metabolic substrate 2,3-bis(2-methoxy-4-nitro-5-sulfophenyl)-2H-tetrazolium-5-carboxanilide (XTT) which is converted only by intact cells into a product with specific absorption characteristics as described by Weislow O S, Kiser R, Fine D L, Bader J, Shoemaker R H and Boyd M R, J. Natl. Cancer Inst. 81, 577 (1989) (herein incorporated by reference in its entirety for all purposes). […]
To determine the antiviral activity of the tested inhibitors, a substrate XTT solution (6 mL per assay plate) at a concentration of 2 mg/mL in a phosphate-buffered saline pH 7.4 was heated in water-bath for 5 min at 55° C. before 50 μl of N-methylphenazonium methasulfate (5 μg/mL) was added per 6 mL of XTT solution. […] Viability, as determined by the amount of XTT metabolites produced, was quantified spectrophotometrically by the absorbance at 450 nm (with subtraction of the background absorbance at 650 nm). […]
A general note: Formazan colour is commonly taken as a measure of viable cells.

Where only a bound is given, the exact number is not on record here.

By EC50 is commonly meant the concentration at which the effect is half-maximal. Consider `CC(C)c1nc(CN(C)C(=O)N[C@@H](CCN2CCOCC2)C(=O)N[C@H](CC[C@H](Cc2ccccc2)NC(=O)OCc2cncs2)Cc2ccccc2)cs1` [Example S], for which the EC50 was above 30 µM.
